Test results as given in ChEMBL document CHEMBL1131475, “Discovery of ritonavir, a potent inhibitor of HIV protease with high oral bioavailability and clinical efficacy” (J Med Chem, 1998).

Key:
[1] = Oral bioavailability in rat; format: ADME, organism-based; conditions: in vivo
[2] = in vivo; conditions: rat, plasma, po
[3] = in vivo; conditions: rat, plasma, po, 10 mg/kg
[4] = in vivo; conditions: rat, plasma, po; remark: listed apart in the source
[5] = in vivo; conditions: rat, plasma, iv

Row | SMILES | bioavailability [1] | AUC [2] | Cmax [3] | Tmax [4] | half-life [5] | F [1]
1 | CC(C)c1cccc(COC(=O)NC(C(=O)N[C@@H](Cc2ccccc2)C[C@H](O)[C@H](Cc2ccccc2)NC(=O)OCc2cccnc2)C(C)C)n1 (stereo partly drawn) | 5.6% | 140 ng·h/mL | 200 nM | 15 min | 34.2 min | –
2 | CCc1nc(CN(C)C(=O)NC(C(=O)N[C@@H](Cc2ccccc2)[C@@H](O)C[C@H](Cc2ccccc2)NC(=O)OCc2cncs2)C(C)C)cs1 (stereo partly drawn) | – | 9370 ng·h/mL | 5120 nM | 60 min | – | 167%
3 | CC(C)c1nc(CCC(=O)NC(C(=O)N[C@@H](Cc2ccccc2)C[C@H](O)[C@H](Cc2ccccc2)NC(=O)OCc2cccnc2)C(C)C)cs1 (stereo partly drawn) | 3.4% | 170 ng·h/mL | 380 nM | 6 min | 16.8 min | –
4 | CC(C)c1cccc(COC(=O)NC(C(=O)N[C@@H](Cc2ccccc2)[C@@H](O)C[C@H](Cc2ccccc2)NC(=O)OCc2cccnc2)C(C)C)n1 (stereo partly drawn) | 8.3% | 310 ng·h/mL | 310 nM | 15 min | 78.6 min | –
5 | CCc1nc(COC(=O)NC(C(=O)N[C@@H](Cc2ccccc2)C[C@H](O)[C@H](Cc2ccccc2)NC(=O)OCc2cccnc2)C(C)C)cs1 (stereo partly drawn) | 7.4% | 330 ng·h/mL | 1300 nM | 9 min | 45 min | –
6 | CCc1cccc(COC(=O)NC(C(=O)N[C@@H](Cc2ccccc2)C[C@H](O)[C@H](Cc2ccccc2)NC(=O)OCc2cccnc2)C(C)C)n1 (stereo partly drawn) | 8% | 470 ng·h/mL | 590 nM | 12 min | 23.4 min | –
7 | COc1ccc(COC(=O)NC(C(=O)N[C@@H](Cc2ccccc2)C[C@H](O)[C@H](Cc2ccccc2)NC(=O)OCc2cccnc2)C(C)C)nc1 (stereo partly drawn) | 1.3% | 50 ng·h/mL | 290 nM | 6 min | 15 min | –
8 | CC(C)C(NC(=O)OCc1cnccn1)C(=O)N[C@@H](Cc1ccccc1)C[C@H](O)[C@H](Cc1ccccc1)NC(=O)OCc1cccnc1 (stereo partly drawn) | 2.4% | 100 ng·h/mL | 500 nM | 12 min | 12 min | –
9 | CCc1ncc(COC(=O)NC(C(=O)N[C@@H](Cc2ccccc2)[C@@H](O)C[C@H](Cc2ccccc2)NC(=O)OCc2cccnc2)C(C)C)s1 (stereo partly drawn) | 9.2% | 490 ng·h/mL | 340 nM | 16.8 min | 73.8 min | –
10 | Cc1cccc(COC(=O)NC(C(=O)N[C@@H](Cc2ccccc2)[C@@H](O)C[C@H](Cc2ccccc2)NC(=O)OCc2ccoc2)C(C)C)n1 (stereo partly drawn) | 0% | – | – | – | 13.2 min | –
11 | COCc1nc(CN(C)C(=O)NC(C(=O)N[C@@H](Cc2ccccc2)C[C@H](O)[C@H](Cc2ccccc2)NC(=O)OCc2cccnc2)C(C)C)cs1 (stereo partly drawn) | 8% | 490 ng·h/mL | 1350 nM | 12 min | 23.4 min | –
12 | CC(C)c1nc(CCC(=O)NC(C(=O)N[C@@H](Cc2ccccc2)[C@@H](O)C[C@H](Cc2ccccc2)NC(=O)OCc2cccnc2)C(C)C)cs1 (stereo partly drawn) | 9% | 410 ng·h/mL | 320 nM | 6 min | 54.6 min | –
13 | Cc1ccc(COC(=O)NC(C(=O)N[C@@H](Cc2ccccc2)C[C@H](O)[C@H](Cc2ccccc2)NC(=O)OCc2cccnc2)C(C)C)cn1 (stereo partly drawn) | 6.4% | 270 ng·h/mL | 780 nM | 9 min | 39 min | –
14 | COCc1ncc(COC(=O)NC(C(=O)N[C@@H](Cc2ccccc2)[C@@H](O)C[C@H](Cc2ccccc2)NC(=O)OCc2cccnc2)C(C)C)s1 (stereo partly drawn) | 11% | 420 ng·h/mL | 380 nM | 9 min | 22.2 min | –
15 | Cc1cncc(COC(=O)NC(C(=O)N[C@@H](Cc2ccccc2)C[C@H](O)[C@H](Cc2ccccc2)NC(=O)OCc2cccnc2)C(C)C)c1 (stereo partly drawn) | 1.6% | 70 ng·h/mL | 330 nM | 9 min | 22.8 min | –
16 | CC(C)c1csc(COC(=O)NC(C(=O)N[C@@H](Cc2ccccc2)C[C@H](O)[C@H](Cc2ccccc2)NC(=O)OCc2cncs2)C(C)C)n1 (stereo partly drawn) | – | 14300 ng·h/mL | 5800 nM | 55.2 min | 30 min | 151%
17 | Cc1cnc(COC(=O)NC(C(=O)N[C@@H](Cc2ccccc2)[C@@H](O)C[C@H](Cc2ccccc2)NC(=O)OCc2cccnc2)C(C)C)cn1 (stereo partly drawn) | 2.8% | 70 ng·h/mL | 350 nM | 12 min | 10.8 min | –
18 | CC(NC(=O)OCc1csc(C(C)C)n1)C(=O)N[C@@H](Cc1ccccc1)C[C@H](O)[C@H](Cc1ccccc1)NC(=O)OCc1cncs1 (stereo partly drawn) | 19% | 1230 ng·h/mL | 1090 nM | 24 min | 31.8 min | –
19 | CC(C)C(NC(=O)N(C)Cc1ccccn1)C(=O)N[C@@H](Cc1ccccc1)[C@@H](O)C[C@H](Cc1ccccc1)NC(=O)OCc1cncnc1 (stereo partly drawn) | 13% | 870 ng·h/mL | 2910 nM | 12 min | 21 min | –
20 | CC(C)c1nc(CN(C)C(=O)NCCC(=O)N[C@@H](Cc2ccccc2)C[C@H](O)[C@H](Cc2ccccc2)NC(=O)OCc2cncs2)cs1 | 7.1% | 190 ng·h/mL | 630 nM | 6 min | 57.6 min | –
21 | CC(C)C(NC(=O)OCc1ccccn1)C(=O)N[C@@H](Cc1ccccc1)[C@@H](O)C[C@H](Cc1ccccc1)NC(=O)OCc1cncnc1 (stereo partly drawn) | 6.7% | 280 ng·h/mL | 1180 nM | 12 min | 30 min | –
22 | CC(C)C(NC(=O)OCc1csc(N2CCOCC2)n1)C(=O)N[C@@H](Cc1ccccc1)[C@@H](O)C[C@H](Cc1ccccc1)NC(=O)OCc1cccnc1 (stereo partly drawn) | 1.1% | 30 ng·h/mL | 90 nM | 9 min | 21 min | –
23 | Cc1ncc(COC(=O)NC(C(=O)N[C@@H](Cc2ccccc2)C[C@H](O)[C@H](Cc2ccccc2)NC(=O)OCc2cccnc2)C(C)C)nc1C (stereo partly drawn) | 10% | 480 ng·h/mL | 2060 nM | 6 min | 25.8 min | –
24 | CC(C)C(NC(=O)OCc1csc(N2CCOCC2)n1)C(=O)N[C@@H](Cc1ccccc1)C[C@H](O)[C@H](Cc1ccccc1)NC(=O)OCc1cccnc1 (stereo partly drawn) | 0% | – | – | – | 19.2 min | –
25 | Cc1cncc(CN(C)C(=O)NC(C(=O)N[C@@H](Cc2ccccc2)C[C@H](O)[C@H](Cc2ccccc2)NC(=O)OCc2cccnc2)C(C)C)c1 (stereo partly drawn) | 9.7% | 310 ng·h/mL | 690 nM | 6 min | 31.8 min | –
26 | CCc1nc(COC(=O)NC(C(=O)N[C@@H](Cc2ccccc2)[C@@H](O)C[C@H](Cc2ccccc2)NC(=O)OCc2cccnc2)C(C)C)cs1 (stereo partly drawn) | 9.5% | 420 ng·h/mL | 990 nM | 6 min | 29.4 min | –
27 | CC(C)C(NC(=O)N(C)Cc1csc(C2CC2)n1)C(=O)N[C@@H](Cc1ccccc1)[C@@H](O)C[C@H](Cc1ccccc1)NC(=O)OCc1cncs1 (stereo partly drawn) | – | 10700 ng·h/mL | 3980 nM | 138 min | 31.8 min | 175%
28 | CC(C)c1nc(CN(C)C(=O)NC(C(=O)N[C@@H](Cc2ccccc2)C[C@H](O)[C@H](Cc2ccccc2)NC(=O)OCc2cccnc2)C(C)C)cs1 (stereo partly drawn) | 12% | 530 ng·h/mL | 980 nM | 19.8 min | 61.8 min | –
